Measurements from publication PMC10451668, “Natural Acetogenins, Chatenaytrienins-1, -2, -3 and -4, Mitochondrial Potential Uncouplers and Autophagy Inducers—Promising Anticancer Agents” (Antioxidants, 2023).

Legend:
Jurkat cell lysates = experiment: Multiplex analysis of signaling, genotoxicity and early apoptosis proteins (MILLIPLEX MAP, Luminex); type: cell-based, human
Method: Multiplex analysis was performed according to a previously published method. MILLIPLEX®MAP technology is used to determine the total protein or phosphorylated protein levels of various biological analytes, such as kinases or signaling proteins, including CREB, ERK/MAP, p70 S6, p21, p38, PI3K/AKT/mTOR, JNK (A), p53, MDM2, Bcl-2/Bax, STAT3 and STAT5, Nf-kB, Caspase 3-8-9, JNK, ATM, Chk1, Chk2, and H2AX, in cell lysates using the Luminex® system ((MILLIPLEX Multi-Pathway Magnetic Bead 9-Plex—Cell Signaling Multiplex Assay kit, Merk, Germany). This MILLIPLEX®MAP technology provides an alternative to Western blotting and immunoprecipitation and has several important advantages, such as more accurate measurement of small amounts of protein and the elimination of analyte loss during sample preparation. The multiplex immunoassay (MILLIPLEX 48-680MAG; Merck Millipore, Germany) was performed in Millipore 96-well plates to detect changes in concentrations of phosphorylated and unphosphorylated proteins p53, MDM2, p21, p38, PI3K/AKT/mTOR, Bcl-2/Bax, STAT3 and STAT5, Nf-kB, Caspase 3 -8-9, CREB, ERK/MAP, p70 S6, JNK, ATM, Chk1, Chk2, and H2AX in Jurkat cell lysates.
The levels of phosphorylated and non-phosphorylated proteins were analyzed using MILLIPLEX® map technology to study the analytes in the same sample within a fairly short time. Various deviations in protein concentration due to external factors or detection errors that could affect the results of the experiment were thereby reduced to zero.
The expression of p53, MDM2, p21, p38, PI3K/AKT/mTOR, Bcl-2/Bax, STAT3 and STAT5, Nf-kB, Caspase 3-8-9, CREB, ERK/MAP, p70 S6, JNK, ATM, Chk1, Chk2, and H2AX proteins in lysate samples of Jurkat tumor cells were studied using Luminex technology with the MILLIPLEX® MAP 9-Plex Multi-Pathway 9-plex Magnetic Bead Kit. This bead-based assay involved color-coded fluorescent particles pre-coated with specific antibodies targeting 9 major kinases in signaling pathways.

Jurkat cells = experiment: Assessment of autophagy (anti-LC3/FITC, flow cytometry); type: cell-based, human; conditions: 0.5 CC50, 48 h
From the text: Autophagy is involved in various physiological processes and its changes are associated with the pathogenesis of diseases such as neurodegenerative diseases, cardiovascular complications, cancer, and infectious diseases, as well as with physiological processes such as innate and specific immunity, pathogen clearance, lymphocyte selection, antigen presentation, and production of immunoglobulins. Therefore, the determination of LC3 protein inside autophagosomes without the cytosolic form of LC3-I at the stage of selective cell permeability was measured using flow cytometry. Thus, using the FlowCellect™ LC3-GFP Reporter Autophagy Assay Kit (FCCH100170 and FCCH100181), flow cytometry allowed for a rapid assay that could be combined with other phenotypic and functional markers to characterize different cell populations.
Canonical autophagy is associated with the conversion of LC3 protein (an autophagosome marker) from the cytoplasmic form of LC3I to the lipid-bound form of LC3II, which is associated with the membranes of maturing autophagosomes. The autophagy process can be conveniently classified into several stages. First, induction and translocation of the cytoplasmic LC3 protein occur due to the influence of external stimuli (adverse environmental influences)—the process is initiated by external/internal stimuli (for example, nutrient depletion or hypoxia). Then, the formation of autophagosomes begins, which are double-membrane vesicles that include the LC3 protein. This protein regulates the fusion of autophagosomes and lysosomes. It exists in two fractions—cytoplasmic LC3-I and LC3-II, isolated in the autophagosomal membrane. The LC3-II protein fraction was specified in our work, as its detection is a reliable indicator of the processes of autophagy in the cell.

## CCCCCCCCCC/C=C\CC/C=C\CC/C=C\CCCCCCCCCCC1=C[C@H](C)OC1=O [compound 1, chatenaytrienin-1]
Jurkat cell lysates; 6 h and 12 h
  expression of caspase-8: did not significantly affect
Jurkat cell lysates; compound at CC50, 4 h
  levels of Akt, p38, and CREB: most pronouncedly suppressed
Jurkat cell lysates; compound at CC50, 4 h, MFI versus intact cells
  levels of all types of kinase proteins (CREB, JNK, NFkB, p38, ERK1/2, Akt, p70S6K, STAT3, STAT5): most pronouncedly reduced
Jurkat cell lysates; especially after 12 h, level exceeded control
  cleaved caspase-9: promoted the accumulation
Jurkat cell lysates; first 6 h, within 12 h began to increase again, not reaching control
  level of BAD protein: decreased
Jurkat cells
  cells with autophagy (gate M3-2): 96.26%
